Measured values published in the NIST ThermoML archive (doi:10.1021/je060457+).

Experiment: xn = mol fraction of the nth substance listed
Settings: 101 kPa, Liquid; for viscosity: Capillary tube (Ostwald / Ubbelohde) method; for mass density: Vibrating tube method

CNCCO [2-(methylamino)ethanol] + O
Settings | mass density [kg/m3] | viscosity [mPa·s]
298.15 K, x1 = 0.0493 | – | 1.801
298.15 K, x1 = 0.0499 | 996.45 | –
298.15 K, x1 = 0.0657 | 996.78 | 2.258
298.15 K, x1 = 0.1054 | 997.9 | 3.804
298.15 K, x1 = 0.1987 | 996.03 | 8.788
298.15 K, x1 = 0.2946 | – | 13.51
298.15 K, x1 = 0.301 | 988.25 | –
298.15 K, x1 = 0.3834 | 980.24 | –
298.15 K, x1 = 0.388 | – | 18.21
298.15 K, x1 = 0.5041 | 968.81 | 19.98
298.15 K, x1 = 0.6 | 960.3 | 19.11
298.15 K, x1 = 0.6974 | 953.64 | –
298.15 K, x1 = 0.7003 | – | 17.02
298.15 K, x1 = 0.8009 | 946.63 | –
298.15 K, x1 = 0.8019 | – | 14.38
298.15 K, x1 = 0.898 | – | 12.46
298.15 K, x1 = 0.9031 | 940.86 | –
298.15 K, x1 = 1 | 936.18 | 10.51
303.15 K, x1 = 0.0493 | – | 1.556
303.15 K, x1 = 0.0499 | 994.49 | –
303.15 K, x1 = 0.0657 | 994.58 | 1.927
303.15 K, x1 = 0.1054 | 995.16 | 3.169
303.15 K, x1 = 0.1987 | 992.48 | 6.987
303.15 K, x1 = 0.2946 | – | 10.53
303.15 K, x1 = 0.301 | 984.47 | –
303.15 K, x1 = 0.3834 | 976.43 | –
303.15 K, x1 = 0.388 | – | 14.11
303.15 K, x1 = 0.5041 | 965 | 15.44
303.15 K, x1 = 0.6 | 956.5 | 15.05
303.15 K, x1 = 0.6974 | 949.81 | –
303.15 K, x1 = 0.7003 | – | 13.42
303.15 K, x1 = 0.8009 | 942.76 | –
303.15 K, x1 = 0.8019 | – | 11.43
303.15 K, x1 = 0.898 | – | 10
303.15 K, x1 = 0.9031 | 936.96 | –
303.15 K, x1 = 1 | 932.26 | 8.522
313.15 K, x1 = 0.0493 | – | 1.195
313.15 K, x1 = 0.0499 | 990.11 | –
313.15 K, x1 = 0.0657 | 989.79 | 1.45
313.15 K, x1 = 0.1054 | 989.39 | 2.272
313.15 K, x1 = 0.1987 | 985.28 | 4.622
313.15 K, x1 = 0.2946 | – | 6.748
313.15 K, x1 = 0.301 | 976.815 | –
313.15 K, x1 = 0.3834 | 968.73 | –
313.15 K, x1 = 0.388 | – | 8.852
313.15 K, x1 = 0.5041 | 957.32 | 9.719
313.15 K, x1 = 0.6 | 948.83 | 9.424
313.15 K, x1 = 0.6974 | 942.12 | –
313.15 K, x1 = 0.7003 | – | 8.652
313.15 K, x1 = 0.8009 | 935.01 | –
313.15 K, x1 = 0.8019 | – | 7.547
313.15 K, x1 = 0.898 | – | 6.716
313.15 K, x1 = 0.9031 | 929.16 | –
313.15 K, x1 = 1 | 924.42 | 5.833
323.15 K, x1 = 0.0493 | – | 0.9978
323.15 K, x1 = 0.0499 | 985.07 | –
323.15 K, x1 = 0.0657 | 984.41 | 1.133
323.15 K, x1 = 0.1054 | 983.17 | 1.643
323.15 K, x1 = 0.1987 | 977.79 | 3.242
323.15 K, x1 = 0.2946 | – | 4.581
323.15 K, x1 = 0.301 | 968.97 | –
323.15 K, x1 = 0.3834 | 960.83 | –
323.15 K, x1 = 0.388 | – | 5.886
323.15 K, x1 = 0.5041 | 949.46 | 6.458
323.15 K, x1 = 0.6 | 940.99 | 6.319
323.15 K, x1 = 0.6974 | 934.27 | –
323.15 K, x1 = 0.7003 | – | 5.881
323.15 K, x1 = 0.8009 | 927.12 | –
323.15 K, x1 = 0.8019 | – | 5.229
323.15 K, x1 = 0.898 | – | 4.725
323.15 K, x1 = 0.9031 | 921.24 | –
323.15 K, x1 = 1 | 916.48 | 4.177
333.15 K, x1 = 0.0493 | – | 0.817
333.15 K, x1 = 0.0499 | 979.47 | –
333.15 K, x1 = 0.0657 | 978.52 | 0.9621
333.15 K, x1 = 0.1054 | 976.55 | –
333.15 K, x1 = 0.1987 | 970.11 | 2.379
333.15 K, x1 = 0.2946 | – | 3.261
333.15 K, x1 = 0.301 | 960.9 | –
333.15 K, x1 = 0.3834 | 952.72 | –
333.15 K, x1 = 0.388 | – | 4.107
333.15 K, x1 = 0.5041 | 941.41 | 4.499
333.15 K, x1 = 0.6 | 932.98 | 4.429
333.15 K, x1 = 0.6974 | 926.28 | –
333.15 K, x1 = 0.7003 | – | 4.177
333.15 K, x1 = 0.8009 | 919.16 | –
333.15 K, x1 = 0.8019 | – | 3.78
333.15 K, x1 = 0.898 | – | 3.463
333.15 K, x1 = 0.9031 | 913.22 | –
333.15 K, x1 = 1 | 908.46 | 3.108
343.15 K, x1 = 0.0493 | – | 0.6997
343.15 K, x1 = 0.0499 | 973.37 | –
343.15 K, x1 = 0.0657 | 972.17 | 0.7903
343.15 K, x1 = 0.1054 | 969.57 | 1.023
343.15 K, x1 = 0.1987 | 962.17 | 1.747
343.15 K, x1 = 0.2946 | – | 2.416
343.15 K, x1 = 0.301 | 952.65 | –
343.15 K, x1 = 0.3834 | 944.43 | –
343.15 K, x1 = 0.388 | – | 2.986
343.15 K, x1 = 0.5041 | 933.17 | 3.255
343.15 K, x1 = 0.6 | 924.8 | 3.227
343.15 K, x1 = 0.6974 | 918.16 | –
343.15 K, x1 = 0.7003 | – | 3.075
343.15 K, x1 = 0.8009 | 911 | –
343.15 K, x1 = 0.8019 | – | 2.827
343.15 K, x1 = 0.898 | – | 2.618
343.15 K, x1 = 0.9031 | 905.06 | –
343.15 K, x1 = 1 | 900.3 | 2.385
